Patent publication US10464883B2, “Compounds and methods for the treatment of neurodegenerative diseases” (Resilio Therapeutics, LLC, priority 2015, dated 2019)

Assay: pH stability of prodrugs of DFMO in PBS buffer (LC/MS/MS)
Type: physicochemical
Experimental: The stability of prodrugs of DFMO to different pH conditions over time was assayed. Prodrugs were reconstituted in dimethylsulfoxide (DMSO), diluted into phosphate buffered saline (PBS) of different pH values, incubated for different lengths of time at room temperature, and then analyzed by LC/MS/MS for changes in the levels of each prodrug. […] Following this initial phase, the (2)-prodrug was reasonably stable over the next 24 hours so that less than 20% of the intact prodrug was lost at pH 3 and 5, and about 60% of the intact material was lost at pH 8 over a day. […] Similar results were obtained with the other prodrugs tested.

In the case of `CC(OC(=O)NCCCC(N)(C(=O)O)C(F)F)OC(=O)C(C)C` (stereo not drawn) [(2)-prodrug, 2-amino-2-(difluoromethyl)-5-[1-(2-methylpropanoyloxy)ethoxycarbonylamino]pentanoic acid], the “intact prodrug lost over the next 24 hours” value (PBS pH 3, room temperature, 24 hours following initial phase) is reported as “less than 20%”, the “decrease in the amount of intact, non-degraded prodrug over the first hour of incubation” value (PBS pH 3, room temperature) is reported as “about 60%” and the “intact prodrug lost over the next 24 hours” value (PBS pH 5, room temperature, 24 hours following initial phase) is reported as “less than 20%”. For the same compound, the “decrease in the amount of intact, non-degraded prodrug over the first hour of incubation” value (PBS pH 5, room temperature) was 30-35%, the “intact material lost over a day” value (PBS pH 8, room temperature, 24 hours following initial phase) was “about 60%” and the “decrease in the amount of intact, non-degraded prodrug over the first hour of incubation” value (PBS pH 8, room temperature) was 30-35%.
